Source: publication PMC8080067, “Tight binding of cytochrome b5 to cytochrome P450 17A1 is a critical feature of stimulation of C21 steroid lyase activity and androgen synthesis” (The Journal of Biological Chemistry, 2021)
Substitutions are numbered along the chain they refer to. Values joined by “and” are separate entries in the source; they are usually repeats but may differ in a detail not shown here. Identical values can stand only once. Like-named read-outs stand apart in the source and are kept apart here.

Tests used:
P450 17A1 E305G variant = molecular target: T1, P450 17A1 E305G variant (Homo sapiens, UniProt P05093, E305G); assay: Substrate-binding spectral titration (type I, ΔA388-A423)
T1 sequence (P05093 1-508 E305G): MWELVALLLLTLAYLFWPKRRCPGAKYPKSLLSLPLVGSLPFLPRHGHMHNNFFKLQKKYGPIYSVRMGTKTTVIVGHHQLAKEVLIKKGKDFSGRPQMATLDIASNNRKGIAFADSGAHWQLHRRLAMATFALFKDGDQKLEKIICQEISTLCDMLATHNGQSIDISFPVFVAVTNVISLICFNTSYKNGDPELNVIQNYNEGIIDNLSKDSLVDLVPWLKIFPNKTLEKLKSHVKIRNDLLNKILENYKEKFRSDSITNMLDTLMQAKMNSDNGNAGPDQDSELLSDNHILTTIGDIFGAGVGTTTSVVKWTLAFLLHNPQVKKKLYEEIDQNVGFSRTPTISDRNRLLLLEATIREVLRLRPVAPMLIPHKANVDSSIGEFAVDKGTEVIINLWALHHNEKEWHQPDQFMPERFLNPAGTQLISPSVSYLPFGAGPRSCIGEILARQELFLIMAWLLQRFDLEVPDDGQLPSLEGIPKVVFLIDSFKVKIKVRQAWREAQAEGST
Description: (§1) The purified enzymes were diluted in 100 mM potassium phosphate buffer (pH 7.4) and divided in two 1.0-ml glass cuvettes. Spectra (350–500 nm) were recorded using an OLIS-DW2 spectrophotometer (On-Line Instrument Systems) with subsequent additions of the substrate. Differences in the absorbance between the wavelength maximum and minimum were plotted versus the substrate concentration ([44]). Kd values were calculated using nonlinear regression analysis in GraphPad Prism software (GraphPad) and the quadratic equation: Y=B+A/2E[(Kd+E+X)−(Kd+E+X)^2−4EX], set in Prism as: Y = B + (A/2) ∗ (1/E) ∗ ((Kd + E + X)-sqrt((Kd + E + X)^ˆ2 - (4 ∗ E ∗ X))).
(§2) Figure S2. […] Increasing concentrations of substrates were added to the sample and reference cuvettes in each case.

P450 17A1 R358Q variant = molecular target: T2, P450 17A1 R358Q variant (Homo sapiens, UniProt P05093, R358Q); assay: as above
T2 sequence (P05093 1-508 R358Q): T1 sequence (P05093 1-508 E305G) with G305E, R358Q
Description: as §1, §2

WT P450 17A1 [1] = molecular target: T3, WT P450 17A1 (Homo sapiens, UniProt P05093); assay: as above
T3 sequence (P05093 1-508): T1 sequence (P05093 1-508 E305G) with G305E
Description: as §1, §2

WT P450 17A1 [2] = molecular target: WT P450 17A1 (Homo sapiens, UniProt P05093); assay: Steady-state kinetics of steroid 17α-hydroxylation and lyase reactions, reconstituted system
Description: P450 catalytic activity assays to measure steroid hydroxylation and lyase reactions were carried out as described previously ([23], [37], [64]).
The reactions were initiated by adding an NADPH-regenerating system (final concentrations of 15 mM glucose 6-phosphate, 1.5 mM NADP^+, and 1 IU ml^−1 glucose 6-phosphate dehydrogenase) ([75]) and terminated by quenching and extracting with 2.0 ml CH2Cl2. Aliquots of the organic phases were dried and then dissolved in 100 μl of a CH3CN/H2O (1:1, v/v) mixture. […] The extraction procedure was then repeated, and the (Δ^4) reaction products were analyzed in a Waters Acquity UPLC system using a BEH C18 octadecylsilane column (2.1 mm × 100 mm, 1.7 μm). The reaction products were resolved using a mobile phase composed of solvents A (70% CH3OH, 30% H2O, v/v) and B (CH3CN), at a flow rate of 0.2 ml min^−1. The mobile phase linear gradient proceeded as follows: 0 to 1 min, 5% B; 4 min, 30% B; 4.5 min, 40% B; 4.55 to 6.75 min, 95% BA; and 7 to 10 min, 5% B. The reaction products were identified by coelution with commercial standards and quantified by the A243 peak areas. Steady-state kinetic parameters were estimated using nonlinear regression of hyperbolic fits in GraphPad Prism software, with equations used for kcat and the specificity constant kcat/Km ([76]): Y = (ksp ∗ X)/(1 + (ksp ∗ X/kcat)) and then deriving Km by division.
Target sequence in this assay (P05093 whole entry): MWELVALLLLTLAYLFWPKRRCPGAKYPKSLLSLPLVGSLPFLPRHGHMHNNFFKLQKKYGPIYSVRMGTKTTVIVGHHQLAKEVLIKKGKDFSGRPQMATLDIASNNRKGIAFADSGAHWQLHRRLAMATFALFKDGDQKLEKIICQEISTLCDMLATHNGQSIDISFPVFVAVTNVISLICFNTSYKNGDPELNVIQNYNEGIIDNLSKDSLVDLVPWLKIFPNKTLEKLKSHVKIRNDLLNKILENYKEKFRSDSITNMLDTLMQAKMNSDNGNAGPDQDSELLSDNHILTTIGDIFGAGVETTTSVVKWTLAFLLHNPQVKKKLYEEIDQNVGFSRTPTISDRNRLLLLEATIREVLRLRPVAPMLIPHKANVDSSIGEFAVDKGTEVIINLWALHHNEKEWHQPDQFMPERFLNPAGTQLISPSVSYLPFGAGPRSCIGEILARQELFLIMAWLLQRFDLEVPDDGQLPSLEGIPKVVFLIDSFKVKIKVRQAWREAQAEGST
Target sequence in this assay (P00167 whole entry partner): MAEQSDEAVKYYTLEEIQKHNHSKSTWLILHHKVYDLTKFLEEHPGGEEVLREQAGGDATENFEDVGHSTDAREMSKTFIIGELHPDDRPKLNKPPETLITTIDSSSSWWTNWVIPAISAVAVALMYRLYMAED

[3] = Kd of P450 17A1·substrate complex, WT, P450 1.0 µM, quadratic fit

Compound: CC(=O)[C@@]1(O)CCC2C3CC=C4C[C@@H](O)CC[C@]4(C)C3CC[C@@]21C (stereo partly drawn) [17α-OH pregnenolone]
- Kd (P450 17A1 E305G variant): 410 ± 180 nM
- Kd (P450 17A1 R358Q variant): 260 ± 120 nM
- Kd (WT P450 17A1 [1]): 110 ± 50 nM
- % WT (kcat/Km) (WT P450 17A1 [2]; lyase reaction (conversion to androstenedione or DHEA), WT): 100%

Compound: CC(=O)[C@H]1CC[C@H]2[C@@H]3CCC4=CC(=O)CC[C@]4(C)[C@H]3CC[C@]12C [Progesterone]
- Kd (P450 17A1 E305G variant): 170 ± 80 nM
- Kd (P450 17A1 R358Q variant): 260 ± 120 nM
- Kd (WT P450 17A1 [1]; [3]): ~65 nM and 65 nM
- % WT (kcat/Km) (WT P450 17A1 [2]): 100%

Compound: CC(=O)C1CCC2C3CC=C4C[C@@H](O)CC[C@]4(C)C3CC[C@]12C (stereo partly drawn) [Pregnenolone]
- Kd (P450 17A1 E305G variant): 260 ± 80 nM
- Kd (P450 17A1 R358Q variant): 150 ± 60 nM
- Kd (WT P450 17A1 [1]; [3]): 140 ± 60 nM
- % WT (kcat/Km) (WT P450 17A1 [2]): 100%
